Laboratory results from patent US5081107A, “Polypeptide compounds” (Imperial Chemical Industries PLC, priority 1988, dated 1992).
Non-standard residues stand in square brackets, D forms with d. Residues, ends and D or L forms follow the SMILES beside them. *: point of attachment. Isonicotinoyl = O=C(c1ccncc1)*; Cbz = O=C(OCc1ccccc1)*

Tests used:
[1] = tested on: bombesin-induced stimulation of the secretion of the enzyme amylase; conditions: rat, in vivo
Procedure: (c) An in vivo test involving the measurement of the antagonism of the bombesin-induced stimulation of the secretion of the enzyme amylase into the pancreatic duct of the rat by a test compound administered orally, sub-cutaneously or intravenously. Bombesin and the test compound can be administered concomitantly or the test compound can be predosed at any convenient interval, for example 30, 60, 90, 120, 150 or 180 minutes, before bombesin is dosed. Amylase was measured by analysis of the conversion of starch into maltose, on incubation of the starch/amylase mixture at 30° C. for 15 minutes, using a spectrophotometric assay as originally described by P. Bernfield in `Methods in Enzymology` Vol. I, p17 (Editors Colowick and Kaplan, Academic Press, New York, 1955). Bombesin (5 micrograms/kg, intravenously) causes a large, but submaximal, increase of amylase secretion within 30 minutes.

[2] = target: T1, bombesin receptor of mouse Swiss 3T3-fibroblast cells (Mus musculus, UniProt P21729); assay: Test (a): in vitro binding assay, displacement of [I125]GRP; conditions: ambient temperature, 1 hour
T1 construct: the bombesin receptor of mouse Swiss 3T3-fibroblast cells; endogenous in cells; host or cells: mouse Swiss 3T3 fibroblast cells
Procedure: (a) An in vitro binding assay which assesses the ability of a test compound to displace radiolabelled gastrin releasing peptide ([I^125 ]GRP) from the bombesin receptor of mouse Swiss 3T3-fibroblast cells. The test is similar to that described by I. Zachary and E. Rozengurt, Proc. Nat. Acad. Sci. USA, 1985, 82, 7616, except that the cells are incubated at ambient temperature for 1 hour;

[3] = tested on: mouse Swiss 3T3-fibroblast cells; type: cell-based; conditions: 3 h
Procedure: (b) An in vitro assay which assesses the ability of a test compound to inhibit the Neuromedin C stimulated mitogenesis of mouse Swiss 3T3-fibroblast cells as determined by the uptake of [^3 H]-thymidine. The test is similar to those described by N. Corps., L. Rees and K. Brown, Biochem. Journal, 1985, 231, 781 and I. Zachary and E. Rozengurt, Proc. Nat. Acad. Sci. USA, 1985, 82, 7616, except that GRP (18-27) (0.2 or 0.4nM) was used to stimulate growth and the test compounds were dissolved in an assay medium containing 0.1% bovine serum albumin and 0.4% dimethylsulphoxide and […]

[4] = tested on: bombesin-induced hypothermia; conditions: rat; cited from earlier work
[5] = tested on: guinea pig pancreatic acini; conditions: cited from earlier work

T1 sequence (P21729 whole entry): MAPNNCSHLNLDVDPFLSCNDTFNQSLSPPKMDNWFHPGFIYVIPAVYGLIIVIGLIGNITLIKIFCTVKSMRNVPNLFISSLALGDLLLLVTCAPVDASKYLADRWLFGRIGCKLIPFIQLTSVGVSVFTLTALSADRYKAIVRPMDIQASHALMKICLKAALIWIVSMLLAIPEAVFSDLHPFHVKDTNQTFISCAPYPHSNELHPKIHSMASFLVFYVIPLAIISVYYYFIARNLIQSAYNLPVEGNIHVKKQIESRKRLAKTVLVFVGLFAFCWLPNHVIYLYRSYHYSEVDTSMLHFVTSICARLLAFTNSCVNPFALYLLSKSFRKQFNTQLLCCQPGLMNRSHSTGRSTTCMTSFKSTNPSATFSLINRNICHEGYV

Row | IC50 in test (c) [1] [mg/kg] | Compound | IC50 [3] [nM] | inhibition of bombesin-stimulated secretion of amylase [5] | further results
1 | < 0.5 | COC(=O)[C@H](CC(C)C)NC(=O)[C@H](Cc1c[nH]cn1)NC(=O)[C@@H](C)NC(=O)[C@@H](NC(=O)[C@H](C)NC(=O)[C@H](Cc1c[nH]c2ccccc12)NC(=O)[C@H](Cc1c[nH]cn1)NC(=O)c1ccncc1)C(C)C [4-Pyridyl--CO--His--Trp--Ala--Val--D--Ala--His--Leu--OMe] (Isonicotinoyl-HWAV[dA]HL-OMe) | 0.7 |  | IC50 [2]: 1.5 nM
2 | < 0.02 | CNC(=O)[C@H](CC(C)C)NC(=O)[C@H](CCCCNC(=O)OCc1ccccc1)NC(=O)[C@@H](C)NC(=O)[C@@H](NC(=O)[C@H](C)NC(=O)[C@H](Cc1c[nH]c2ccccc12)NC(=O)[C@H](Cc1c[nH]cn1)NC(=O)c1ccncc1)C(C)C [4-Pyridyl-CO--His--Trp--Ala--Val--D-Ala--Lys(Z)--Leu--NHMe] (Isonicotinoyl-HWAV[dA]K(Cbz)L-NHMe) | 0.2 |  | 
3 |  | [D--Glp^7, D--Ala^11, Ala^14 ]bombesin (7-14) |  |  | antagonism of bombesin-induced hypothermia [4]: partial antagonist
4 |  | [D--Phe^12, Leu^14 ]bombesin |  | inhibited | 
5 |  | [D-Phe^12 ]bombesin |  | inhibited | 
6 |  | [Tyr^4, D--Phe^12 ]bombesin |  | inhibited | 
